Values joined by “and” are separate entries in the source; they are usually repeats but may differ in a detail not shown here. Identical values can stand only once. Active and inactive are the calls of the source. The calls are words filed in the database; no cut-off is given here.
Key:
Mus musculus [1] = assay: Anticonvulsant activity in Kunming mouse assessed as reduction in ScPTZ-induced mortality rate at 300 mg/kg, ip administered 0.5 hrs before ScPTZ stimulation relative to control; type: functional; parameters: scale not given: the % may be the effect or the level left
Mus musculus [2] = assay: Anticonvulsant activity in Kunming mouse assessed as reduction in Sc3-MP-induced seizure at 300 mg/kg, ip administered 0.25 and 1 hrs before Sc3-MP stimulation relative to control; type: functional, organism-based
Mus musculus [3] = assay: Anticonvulsant activity in Kunming mouse assessed as reduction in Sc3-MP-induced seizure at 300 mg/kg, ip administered 0.5 hrs before Sc3-MP stimulation relative to control; type: functional; parameters: scale not given: the % may be the effect or the level left
Mus musculus [4] = assay: Anticonvulsant activity in Kunming mouse assessed as reduction in Sc3-MP-induced tonic seizure rate at 300 mg/kg, ip administered 0.5 hrs before Sc3-MP stimulation relative to control; type: functional; parameters: scale not given: the % may be the effect or the level left
[5] = (§1) Protective index, ratio of TD50 for neurotoxicity against ip dosed Kunming mouse assessed as time remained in rod measured at 0.5 hrs by rotarod test to ED50 for anticonvulsant activity in ip dosed Kunming mouse assessed as reduction in ScPTZ-induced seizure administered 0.5 hrs before ScPTZ stimulation; type: toxicity, organism-based; details: in vivo, read-out: PI
Mus musculus [6] = assay: Anticonvulsant activity in Kunming mouse assessed as reduction in ScPTZ-induced seizure at 300 mg/kg, ip administered 0.25 to 2 hrs before ScPTZ stimulation relative to control; type: functional; parameters: scale not given: the % may be the effect or the level left
[7] = as §1, with “Sc3-MP-induced” for “ScPTZ-induced”, “Sc3-MP” for “ScPTZ”; type: toxicity, organism-based; details: in vivo, read-out: PI
Mus musculus [8] = assay: Anticonvulsant activity in Kunming mouse assessed as reduction in ScPTZ-induced seizure at 100 mg/kg, ip administered 0.25 to 2 hrs before ScPTZ stimulation relative to control; type: functional
[9] = Neurotoxicity against ip dosed Kunming mouse assessed as time remained in rod measured at 0.5 hrs by rotarod test; type: toxicity, organism-based; details: in vivo
Mus musculus [10] = assay: […] activity in ip dosed Kunming mouse assessed as reduction in formalin-induced paw licking administered 0.5 hrs before formalin stimulation; type: functional
Mus musculus [11] = assay: Anticonvulsant activity in Kunming mouse assessed as reduction in ScPTZ-induced tonic seizure rate at 100 mg/kg, ip administered 0.5 hrs before ScPTZ stimulation relative to control; type: functional; parameters: scale not given: the % may be the effect or the level left
Mus musculus [12] = assay: Anticonvulsant activity in Kunming mouse assessed as MES-induced hind limb extension at 50 mg/kg, ip administered 0.5 to 4 hrs before MES stimulation relative to control; type: functional
Mus musculus [13] = assay: Anticonvulsant activity in ip dosed Kunming mouse assessed as reduction in ScPTZ-induced seizure administered 0.5 hrs before ScPTZ stimulation; type: functional
Mus musculus [14] = assay: Anticonvulsant activity in ip dosed Kunming mouse assessed as MES-induced hind limb extension administered 0.5 hrs before MES stimulation; type: functional
Homo sapiens [15] = species on record: Homo sapiens; assay: Inhibition of human LDH1 at 0.5 mM using sodium pyruvate as substrate by UV-VIS spectrophotometry method relative to control
Mus musculus [16] = assay: Anticonvulsant activity in Kunming mouse assessed as reduction in ScPTZ-induced seizure at 100 mg/kg, ip administered 0.25 and 1 hrs before ScPTZ stimulation relative to control; type: functional; parameters: scale not given: the % may be the effect or the level left
Mus musculus [17] = assay: Anticonvulsant activity in Kunming mouse assessed as reduction in ScPTZ-induced clonic seizure at 100 mg/kg, ip administered 0.5 hrs before ScPTZ stimulation relative to control; type: functional; parameters: scale not given: the % may be the effect or the level left
[18] = Protective index, ratio of TD50 for neurotoxicity against ip dosed Kunming mouse assessed as time remained in rod measured at 0.5 hrs by rotarod test to ED50 for anticonvulsant activity in ip dosed Kunming mouse assessed as MES-induced hind limb extension administered 0.5 hrs; type: toxicity, organism-based; details: in vivo, read-out: PI
Mus musculus [19] = assay: Anticonvulsant activity in Kunming mouse assessed as MES-induced hind limb extension at 100 mg/kg, ip administered 0. 5 to 4 hrs before MES stimulation relative to control; type: functional
Mus musculus [20] = assay: Anticonvulsant activity in Kunming mouse assessed as reduction in ScPTZ-induced clonic seizure at 300 mg/kg, ip administered 0.5 hrs before ScPTZ stimulation relative to control; type: functional; parameters: scale not given: the % may be the effect or the level left
Mus musculus [21] = assay: Anticonvulsant activity in Kunming mouse assessed as reduction in ScPTZ-induced tonic seizure rate at 300 mg/kg, ip administered 0.5 hrs before ScPTZ stimulation relative to control; type: functional; parameters: scale not given: the % may be the effect or the level left
Mus musculus [22] = assay: Anticonvulsant activity in Kunming mouse assessed as reduction in Sc3-MP-induced clonic seizure rate at 300 mg/kg, ip administered 0.5 hrs before Sc3-MP stimulation relative to control; type: functional; parameters: scale not given: the % may be the effect or the level left
[23] = Neurotoxicity against Kunming mouse assessed as time remained in rod at 100 mg/kg, ip administered 0.5 to 2 hrs by rotarod test; type: toxicity, organism-based; details: in vivo
Mus musculus [24] = assay: Anticonvulsant activity in Kunming mouse assessed as reduction in Sc3-MP-induced seizure ip dosed measured at 0.5 hrs before Sc3-MP stimulation; type: functional
Mus musculus [25] = assay: Anticonvulsant activity in Kunming mouse assessed as MES-induced hind limb extension at 100 mg/kg, ip administered 0. 5 to 2 hrs before MES stimulation; type: functional, organism-based
Homo sapiens [26] = species on record: Homo sapiens; assay: Inhibition of human LDH5 at 0.5 mM using sodium pyruvate as substrate by UV-VIS spectrophotometry method relative to control
[27] = as §1, with “formalin-induced paw licking” for “ScPTZ-induced seizure”, “formalin” for “ScPTZ”; type: toxicity, organism-based; details: in vivo, read-out: PI
[28] = Drug metabolism in Sprague-Dawley rat assessed as retention time by HPLC/MS analysis; type: ADME
Mus musculus [29] = assay: Anticonvulsant activity in Kunming mouse assessed as MES-induced hind limb extension at 100 mg/kg, ip administered 3 hrs before MES stimulation; type: functional, organism-based
Mus musculus [30] = assay: Anticonvulsant activity in Kunming mouse assessed as reduction in Sc3-MP-induced mortality rate at 300 mg/kg, ip administered 0.5 hrs before Sc3-MP stimulation relative to control; type: functional; parameters: scale not given: the % may be the effect or the level left
Mus musculus [31] = assay: Anticonvulsant activity in Kunming mouse assessed as MES-induced hind limb extension at 50 mg/kg, ip administered 0.5 and 2 hrs before MES stimulation relative to control; type: functional
Mus musculus [32] = assay: Anticonvulsant activity in Kunming mouse assessed as reduction in ScPTZ-induced seizure at 100 mg/kg, ip administered 0.5 hrs before ScPTZ stimulation relative to control; type: functional; parameters: scale not given: the % may be the effect or the level left
Homo sapiens [33] = species on record: Homo sapiens; assay: Inhibition of human LDH1 at 0.5 mM using sodium pyruvate as substrate measured for 60 sec for every 5 mins by LC/MS-MS analysis
Homo sapiens [34] = species on record: Homo sapiens; assay: Inhibition of human LDH5 at 0.5 mM using sodium pyruvate as substrate measured for 60 sec for every 5 mins by LC/MS-MS analysis

| Structure (SMILES) | Activity (Mus musculus [4]) [%] | selectivity ratio at 0.5 h [5] | Activity (Mus musculus [6]) [%] | selectivity ratio at 0.5 h [7] | Activity (Mus musculus [8]) | TD50 at 0.5 h [9] | ED50 (Mus musculus [10]) | Activity (Mus musculus [11]) [%] | Activity (Mus musculus [12]) [%] | ED50 (Mus musculus [13]) | ED50 (Mus musculus [14]) | Activity (Mus musculus [17]) [%] | selectivity ratio at 0.5 h [18] | Activity (Mus musculus [19]) | Activity (Mus musculus [20]) [%] | Activity (Mus musculus [21]) [%] | Activity (Mus musculus [22]) [%] | Activity [23] | ED50 (Mus musculus [24]) | Activity (Mus musculus [25]) | other results |
| --- | --- | --- | --- | --- | --- | --- | --- | --- | --- | --- | --- | --- | --- | --- | --- | --- | --- | --- | --- | --- | --- |
| COc1cc(OC)c(OC)cc1/C=C/COC(=O)/C=C/c1ccc(Cl)cc1 | 50 | > 7.1 | 50 | > 6.2 | inactive | > 2570 µmol/kg and > 1000 mg/kg | 108 mg/kg and 278 µmol/kg | 100 | 50 | 142 mg/kg and 364 µmol/kg | 137 µmol/kg and 53.4 mg/kg | 100 | > 18.7 | 25 - 100% | 100 | 25 | 100 | Non-Toxic | > 200 mg/kg and > 514 µmol/kg | Active | Activity (Mus musculus [1]): 0%; Activity (Mus musculus [2]): Active; Activity (Mus musculus [3]): 50%; inhibition (Homo sapiens [15]): < 5%; Activity (Mus musculus [16]): 75%; inhibition (Homo sapiens [26]): < 9%; selectivity ratio at 0.5 h [27]: > 9.3 |
| COc1cc(OC)c(OC)cc1/C=C/CO | – | – | – | – | – | 3070 µmol/kg and 689 mg/kg | – | – | – | – | 277 µmol/kg and 62 mg/kg | – | 11.1 | – | – | – | – | Non-Toxic | – | Active | Retention_time [28]: 67.5 min |
| COc1cc(OC)c(OC)cc1/C=C/COC(=O)/C=C/c1ccccc1Cl | 50 | > 6.7 | 50 | > 4 | inactive | > 2570 µmol/kg and > 1000 mg/kg | 101 mg/kg and 260 µmol/kg | 100 | 50 | 150 mg/kg and 385 µmol/kg | 151 µmol/kg and 58.7 mg/kg | 100 | > 17 | 25 - 100% | 100 | 25 | 100 | Non-Toxic | 248 mg/kg and 639 µmol/kg | Active | Activity (Mus musculus [1]): 0%; Activity (Mus musculus [2]): Active; Activity (Mus musculus [3]): 50%; Activity (Mus musculus [29]): Active; Activity (Mus musculus [30]): 0%; Activity (Mus musculus [31]): 75%; inhibition (Homo sapiens [15]): < 5%; Activity (Mus musculus [16]): 75%; inhibition (Homo sapiens [26]): < 9%; selectivity ratio at 0.5 h [27]: > 9.9 |
| COc1cc(OC)c(/C=C/C(=O)OC/C=C/c2cc(OC)c(OC)cc2OC)c(OC)c1 | 75 | > 4.7 | 50 | 3.3 | inactive | > 2250 µmol/kg and > 1000 mg/kg | 99 mg/kg and 223 µmol/kg | 100 | 50 | 212 mg/kg and 476 µmol/kg | 157 µmol/kg and 69.8 mg/kg | 100 | > 14.3 | 25 - 100% | 100 | 0 | 100 | Non-Toxic | > 300 mg/kg and > 675 µmol/kg | Active | Activity (Mus musculus [29]): Active; Activity (Mus musculus [30]): 25%; Activity (Mus musculus [32]): 100%; inhibition (Homo sapiens [33]): Active; inhibition (Homo sapiens [34]): Active; selectivity ratio at 0.5 h [27]: > 10.1 |

From ChEMBL document CHEMBL4311969, “Polygala tenuifolia-Acori tatarinowii herbal pair as an inspiration for substituted cinnamic α-asaronol esters: Design, synthesis, anticonvulsant activity, and inhibition of lactate dehydrogenase study” (Eur J Med Chem, 2019)
